# Assay results reported in patent US9932314B2, “Pyrazole compounds and their use as T-type calcium channel blockers” (IDORSIA PHARMACEUTICALS LTD, priority 2015, dated 2018).
# pIC50: −log10 of the molar value.
# Molecular target: T1, voltage-dependent T-type calcium channel subunit alpha-1G (Cav3.2) (Homo sapiens, UniProt O95180)
# T1 construct: expressed in transfected cells; host or cells: HEK293
# Experiment: FLIPR calcium flux assay, HEK293 cells recombinantly expressing Cav3.2
# Assay type: cell-based
# Details: Cav3.2-channel, Fluo-4-AM, 3 min incubation, stimulation with 10 mM CaCl2
# Summary of the method: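 Calcium influx was triggered by adding CaCl2 to 10 mM final, 3 min after compounds in tetraethylammonium-based buffer, pH 7.2, reached Fluo-4-AM-loaded recombinant HEK293 cells. The integrated kinetic fluorescence signal per concentration gave concentration-response curves by non-linear sigmoidal regression.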
# T1 sequence (O95180 whole entry): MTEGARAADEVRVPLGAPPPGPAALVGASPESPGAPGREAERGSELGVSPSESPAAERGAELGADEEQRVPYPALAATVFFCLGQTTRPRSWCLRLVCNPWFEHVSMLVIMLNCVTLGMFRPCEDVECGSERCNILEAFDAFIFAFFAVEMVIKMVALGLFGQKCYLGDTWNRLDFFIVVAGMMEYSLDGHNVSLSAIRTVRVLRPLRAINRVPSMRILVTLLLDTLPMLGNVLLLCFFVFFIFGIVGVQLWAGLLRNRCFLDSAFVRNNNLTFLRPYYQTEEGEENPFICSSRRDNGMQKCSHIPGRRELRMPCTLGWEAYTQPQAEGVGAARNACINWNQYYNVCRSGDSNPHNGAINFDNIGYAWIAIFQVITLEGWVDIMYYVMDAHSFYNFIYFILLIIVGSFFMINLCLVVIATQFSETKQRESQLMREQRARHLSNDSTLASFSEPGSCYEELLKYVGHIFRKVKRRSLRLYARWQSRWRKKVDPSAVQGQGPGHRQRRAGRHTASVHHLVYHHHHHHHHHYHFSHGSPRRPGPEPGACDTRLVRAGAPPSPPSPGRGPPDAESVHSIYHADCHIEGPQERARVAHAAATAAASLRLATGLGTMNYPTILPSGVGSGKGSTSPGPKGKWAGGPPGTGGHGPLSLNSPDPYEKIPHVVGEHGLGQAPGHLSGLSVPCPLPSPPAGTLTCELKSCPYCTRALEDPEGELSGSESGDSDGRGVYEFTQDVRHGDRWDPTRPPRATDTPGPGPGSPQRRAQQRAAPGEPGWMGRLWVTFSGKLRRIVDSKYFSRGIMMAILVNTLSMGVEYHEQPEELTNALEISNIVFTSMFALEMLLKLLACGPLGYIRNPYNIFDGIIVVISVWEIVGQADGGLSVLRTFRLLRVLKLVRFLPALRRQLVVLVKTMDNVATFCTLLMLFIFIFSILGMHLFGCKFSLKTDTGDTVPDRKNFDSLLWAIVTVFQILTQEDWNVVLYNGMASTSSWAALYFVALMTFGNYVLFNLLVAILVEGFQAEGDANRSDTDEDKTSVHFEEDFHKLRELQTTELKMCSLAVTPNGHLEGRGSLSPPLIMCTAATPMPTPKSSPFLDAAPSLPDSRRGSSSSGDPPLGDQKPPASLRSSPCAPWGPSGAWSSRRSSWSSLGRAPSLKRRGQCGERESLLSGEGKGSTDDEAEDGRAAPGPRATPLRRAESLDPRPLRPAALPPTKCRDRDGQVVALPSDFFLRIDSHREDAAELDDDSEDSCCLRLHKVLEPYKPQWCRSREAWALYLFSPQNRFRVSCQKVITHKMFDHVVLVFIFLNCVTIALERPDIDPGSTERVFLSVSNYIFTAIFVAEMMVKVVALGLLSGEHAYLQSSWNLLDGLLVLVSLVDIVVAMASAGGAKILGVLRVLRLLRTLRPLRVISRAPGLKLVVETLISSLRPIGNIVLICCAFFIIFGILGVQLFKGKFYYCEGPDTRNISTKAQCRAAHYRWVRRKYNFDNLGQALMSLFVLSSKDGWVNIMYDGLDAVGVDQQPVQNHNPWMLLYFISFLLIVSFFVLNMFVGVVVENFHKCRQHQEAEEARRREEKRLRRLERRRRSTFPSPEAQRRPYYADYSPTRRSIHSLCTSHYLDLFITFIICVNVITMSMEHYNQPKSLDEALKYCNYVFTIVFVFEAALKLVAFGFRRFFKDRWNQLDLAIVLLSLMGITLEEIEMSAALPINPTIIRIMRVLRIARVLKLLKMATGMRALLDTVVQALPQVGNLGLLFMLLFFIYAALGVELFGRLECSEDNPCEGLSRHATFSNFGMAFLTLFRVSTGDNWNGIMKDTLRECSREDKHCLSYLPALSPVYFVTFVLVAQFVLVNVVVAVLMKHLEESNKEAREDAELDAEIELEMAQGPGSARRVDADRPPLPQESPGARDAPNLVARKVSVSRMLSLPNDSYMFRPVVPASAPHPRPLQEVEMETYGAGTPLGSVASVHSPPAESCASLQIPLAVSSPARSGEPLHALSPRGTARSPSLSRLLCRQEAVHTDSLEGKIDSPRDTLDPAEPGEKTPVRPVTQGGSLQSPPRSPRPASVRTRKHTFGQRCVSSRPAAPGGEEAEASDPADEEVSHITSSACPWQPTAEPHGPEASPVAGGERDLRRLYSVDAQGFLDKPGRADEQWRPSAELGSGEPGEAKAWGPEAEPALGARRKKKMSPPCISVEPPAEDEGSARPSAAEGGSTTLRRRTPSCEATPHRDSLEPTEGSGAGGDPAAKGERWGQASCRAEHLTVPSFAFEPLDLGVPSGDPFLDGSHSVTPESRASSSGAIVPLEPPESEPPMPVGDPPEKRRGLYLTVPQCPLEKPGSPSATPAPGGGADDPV
row,SMILES,pIC50
1,"CC(C)(C)c1ccc(CC(=O)Nc2ccn(Cc3ccc(F)c(C#N)c3)n2)cc1 [Example 283, 2-(4-tert-Butyl-phenyl)-N-[1-(3-cyano-4-fluoro-benzyl)-1H-pyrazol-3-yl]-acetamide]",8.02
2,"COCCN(C)c1ccc(CC(=O)Nc2ccn(Cc3ccc(C#N)cc3)n2)cc1 [Example 127, N-[1-(4-Cyano-benzyl)-1H-pyrazol-3-yl]-2-{4-[(2-methoxy-ethyl)-methyl-amino]-phenyl}-acetamide]",7.57
3,"CC1(c2ccc(CC(=O)Nc3ccn(Cc4ccc(C#N)cn4)n3)cc2)COC1 [Example 318, N-[1-(5-Cyano-pyridin-2-ylmethyl)-1H-pyrazol-3-yl]-2-[4-(3-methyl-oxetan-3-yl)-phenyl]-acetamide]",6.42
4,"CC(C)c1ccc(CC(=O)Nc2ccn(Cc3ccc(C4CC4)cc3)n2)cc1 [Example 192, N-[1-(4-Cyclopropyl-benzyl)-1H-pyrazol-3-yl]-2-(4-isopropyl-phenyl)-acetamide]",6.88
5,"O=C(Cc1ccc(N2CC[C@H](F)C2)cc1)Nc1ccn(Cc2ccc(F)c(F)c2)n1 [Example 61, N-[1-(3,4-Difluoro-benzyl)-1H-pyrazol-3-yl]-2-[4-((S)-3-fluoro-pyrrolidin-1-yl)-phenyl]-acetamide]",8.47
6,"COc1ccc(Cn2ccc(NC(=O)Cc3ccc(N4CC(F)(F)C4)cc3)n2)cc1 [Example 51, 2-[4-(3,3-Difluoro-azetidin-1-yl)-phenyl]-N-[1-(4-methoxy-benzyl)-1H-pyrazol-3-yl]-acetamide]",7.80
7,"N#Cc1ccc(Cn2ccc(NC(=O)Cc3ccc(OCC4COC4)cc3)n2)cc1F [Example 262, N-[1-(4-Cyano-3-fluoro-benzyl)-1H-pyrazol-3-yl]-2-[4-(oxetan-3-ylmethoxy)-phenyl]-acetamide]",6.81
8,"CC(C)c1ccc(CC(=O)Nc2ccn(Cc3ccc(F)cn3)n2)cc1 [Example 106, N-[1-(5-Fluoro-pyridin-2-ylmethyl)-1H-pyrazol-3-yl]-2-(4-isopropyl-phenyl)-acetamide]",7.82
9,"O=C(Cc1ccc(N2CC(F)(F)C2)cc1)Nc1ccn(Cc2ccc(F)c(F)c2)n1 [Example 52, 2-[4-(3,3-Difluoro-azetidin-1-yl)-phenyl]-N-[1-(3,4-difluoro-benzyl)-1H-pyrazol-3-yl]-acetamide]",8.59
10,"CN(CC1CC1)c1ccc(CC(=O)Nc2ccn(Cc3ccc(C#N)cc3)n2)cn1 [Example 186, N-[1-(4-Cyano-benzyl)-1H-pyrazol-3-yl]-2-[6-(cyclopropylmethyl-methyl-amino)-pyridin-3-yl]-acetamide]",7.39
11,"Cc1ccc(Cn2ccc(NC(=O)Cc3ccc(N4CCCC4)nc3)n2)nc1C#N [Example 373, N-[1-(6-Cyano-5-methyl-pyridin-2-ylmethyl)-1H-pyrazol-3-yl]-2-(6-pyrrolidin-1-yl-pyridin-3-yl)-acetamide]",6.46
12,"CC(C)c1ccc(CC(=O)Nc2ccn(Cc3ccc(F)cc3)n2)cc1 [Example 6, N-[1-(4-Fluoro-benzyl)-1H-pyrazol-3-yl]-2-(4-isopropyl-phenyl)-acetamide]",8.18
13,"Cn1ncc2cc(CC(=O)Nc3ccn(Cc4ccc(C#N)cc4)n3)ccc21 [Example 252, N-[1-(4-Cyano-benzyl)-1H-pyrazol-3-yl]-2-(1-methyl-1H-indazol-5-yl)-acetamide]",7.25
14,"CN(C)c1ccc(CC(=O)Nc2ccn(Cc3cc(F)c(F)c(F)c3)n2)cn1 [Example 41, 2-(6-Dimethylamino-pyridin-3-yl)-N-[1-(3,4,5-trifluoro-benzyl)-1H-pyrazol-3-yl]-acetamide]",7.42
15,"O=C(Cc1ccc(N2CC(F)C2)cc1)Nc1ccn(Cc2ccc(F)cc2)n1 [Example 73, 2-[4-(3-Fluoro-azetidin-1-yl)-phenyl]-N-[1-(4-fluoro-benzyl)-1H-pyrazol-3-yl]-acetamide]",8.10
16,"CN(CC1CC1)c1ccc(CC(=O)Nc2ccn(Cc3ccc(C#N)cn3)n2)cn1 [Example 184, N-[1-(5-Cyano-pyridin-2-ylmethyl)-1H-pyrazol-3-yl]-2-[6-(cyclopropylmethyl-methyl-amino)-pyridin-3-yl]-acetamide]",6.31
17,"COc1ccc(Cn2ccc(NC(=O)Cc3ccc(N(C)C4CC4)nc3)n2)cc1 [Example 168, 2-[6-(Cyclopropyl(methyl)amino)-pyridin-3-yl]-N-[1-(4-methoxy-benzyl)-1H-pyrazol-3-yl]-acetamide]",6.95
18,"CC(C)c1ccc(Cn2ccc(NC(=O)Cc3ccc(N(C)C)cc3)n2)cc1 [Example 17, 2-(4-Dimethylamino-phenyl)-N-[1-(4-isopropyl-benzyl)-1H-pyrazol-3-yl]-acetamide]",7.92
19,"O=C(Cc1ccc(N2CCC2)nc1)Nc1ccn(Cc2ccc(F)cc2)n1 [Example 103, 2-(6-Azetidin-1-yl-pyridin-3-yl)-N-[1-(4-fluoro-benzyl)-1H-pyrazol-3-yl]-acetamide]",6.84
20,"CCN(CC)c1ccc(CC(=O)Nc2ccn(Cc3ccc(F)c(F)c3)n2)cn1 [Example 124, 2-(6-Diethylamino-pyridin-3-yl)-N-[1-(3,4-difluoro-benzyl)-1H-pyrazol-3-yl]-acetamide]",8.00

row,SMILES,pIC50
1,"Cc1cc(CC(=O)Nc2ccn(Cc3cc(C#N)c(F)cn3)n2)ccc1OCCC(F)(F)F [Example 421, N-[1-(4-Cyano-5-fluoro-pyridin-2-ylmethyl)-1H-pyrazol-3-yl]-2-[3-methyl-4-(3,3,3-trifluoro-propoxy)-phenyl]-acetamide]",7.39
2,"Cn1ccc2ccc(CC(=O)Nc3ccn(Cc4ccc(C#N)cn4)n3)cc21 [Example 302, N-[1-(5-Cyano-pyridin-2-ylmethyl)-1H-pyrazol-3-yl]-2-(1-methyl-1H-indol-6-yl)-acetamide]",7.41
3,"Cc1ccc(Cn2ccc(NC(=O)Cc3ccc(C(C)C)cc3)n2)nc1 [Example 97, 2-(4-Isopropyl-phenyl)-N-[1-(5-methyl-pyridin-2-ylmethyl)-1H-pyrazol-3-yl]-acetamide]",7.51
4,"CCN(CC)c1ccc(CC(=O)Nc2ccn(Cc3ccc(C#N)cc3)n2)cn1 [Example 189, N-[1-(4-Cyano-benzyl)-1H-pyrazol-3-yl]-2-(6-diethylamino-pyridin-3-yl)-acetamide]",7.06
5,"N#Cc1ccc(Cn2ccc(NC(=O)Cc3ccc(OCC(F)(F)F)cc3)n2)cc1 [Example 47, N-[1-(4-Cyano-benzyl)-1H-pyrazol-3-yl]-2-[4-(2,2,2-trifluoro-ethoxy)-phenyl]-acetamide]",7.43
6,"N#Cc1ccc(Cn2ccc(NC(=O)Cc3ccc(F)cc3OCC(F)(F)F)n2)nc1 [Example 333, N-[1-(5-Cyano-pyridin-2-ylmethyl)-1H-pyrazol-3-yl]-2-[4-fluoro-2-(2,2,2-trifluoro-ethoxy)-phenyl]-acetamide]",5.55
7,"CCn1ncc2cc(CC(=O)Nc3ccn(Cc4cc(F)c(C#N)c(F)c4)n3)ccc21 [Example 357, N-[1-(4-Cyano-3,5-difluoro-benzyl)-1H-pyrazol-3-yl]-2-(1-ethyl-1H-indazol-5-yl)-acetamide]",7.47
8,"CC1(c2ccc(CC(=O)Nc3ccn(Cc4ccc(C#N)cc4)n3)cc2)COC1 [Example 317, N-[1-(4-Cyano-benzyl)-1H-pyrazol-3-yl]-2-[4-(3-methyl-oxetan-3-yl)-phenyl]-acetamide]",7.25
9,"N#Cc1ccc(Cn2ccc(NC(=O)Cc3ccc(C4CC4)nc3)n2)cc1F [Example 216, N-[1-(4-Cyano-3-fluoro-benzyl)-1H-pyrazol-3-yl]-2-(6-cyclopropyl-pyridin-3-yl)-acetamide]",6.57
10,"COc1ccc(Cn2ccc(NC(=O)Cc3cnc4c(ccn4C)c3)n2)cc1 [Example 215, N-[1-(4-Methoxy-benzyl)-1H-pyrazol-3-yl]-2-(1-methyl-1H-pyrrolo[2,3-b]pyridin-5-yl)-acetamide]",6.22
11,"O=C(Cc1ccc(OC2CC2)cc1)Nc1ccn(Cc2ccc(F)c(F)c2)n1 [Example 66, 2-(4-Cyclopropoxy-phenyl)-N-[1-(3,4-difluoro-benzyl)-1H-pyrazol-3-yl]-acetamide]",7.72
12,"Cn1ccc2cc(CC(=O)Nc3ccn(Cc4ccc(C#N)cc4)n3)ccc21 [Example 296, N-[1-(4-Cyano-benzyl)-1H-pyrazol-3-yl]-2-(1-methyl-1H-indol-5-yl)-acetamide]",7.77
13,"N#Cc1ccc(Cn2ccc(NC(=O)Cc3ccc(C4CC(F)(F)C4)cc3)n2)nc1 [Example 305, N-[1-(5-Cyano-pyridin-2-ylmethyl)-1H-pyrazol-3-yl]-2-[4-(3,3-difluoro-cyclobutyl)-phenyl]-acetamide]",7.54
14,"CC1COc2cc(CC(=O)Nc3ccn(Cc4ccc(C#N)cn4)n3)ccc2C1 (racemic) [Example 388, rac-N-[1-(5-Cyano-pyridin-2-ylmethyl)-1H-pyrazol-3-yl]-2-(3-methyl-chroman-7-yl)-acetamide]",7.52
15,"N#Cc1ccc(Cn2ccc(NC(=O)Cc3ccc(N4CCC4)nc3)n2)nc1 [Example 102, 2-(6-Azetidin-1-yl-pyridin-3-yl)-N-[1-(5-cyano-pyridin-2-ylmethyl)-1H-pyrazol-3-yl]-acetamide]",5.15
16,"O=C(Cc1ccc(N2CCCC2=O)cc1)Nc1ccn(Cc2ccc(F)cc2)n1 [Example 204, N-[1-(4-Fluoro-benzyl)-1H-pyrazol-3-yl]-2-[4-(2-oxo-pyrrolidin-1-yl)-phenyl]-acetamide]",7.10
17,"N#Cc1ccc(Cn2ccc(NC(=O)Cc3ccc(N4CCC(F)(F)C4)nc3)n2)nc1 [Example 119, N-[1-(5-Cyano-pyridin-2-ylmethyl)-1H-pyrazol-3-yl]-2-[6-(3,3-difluoro-pyrrolidin-1-yl)-pyridin-3-yl]-acetamide]",6.86
18,"N#Cc1ccc(Cn2ccc(NC(=O)Cc3ccc(C4(C(F)(F)F)CC4)cc3)n2)cc1F [Example 265, N-[1-(4-Cyano-3-fluoro-benzyl)-1H-pyrazol-3-yl]-2-[4-(1-trifluoromethyl-cyclopropyl)-phenyl]-acetamide]",7.82
19,"CO[C@@H](C)c1ccc(CC(=O)Nc2ccn(Cc3ccc(F)c(F)c3)n2)cc1 (single isomer, unassigned) [Example 233]",8.09
